Reference: patent publication US12310964B2, “Compositions and methods for the treatment of Lowe Syndrome” (Purdue Research Foundation, priority 2020, dated 2025)

What was measured:
mTOR pathway in LS cells = assay: Western blotting of PI3K/Akt/mTOR pathway; format: cell-based, Human
Description: Normal and LS cells were seeded on 100 mm plates and grown to 60-70% confluency in complete media. Then media was exchanged with 0.1% serum DMEM media with DMSO or 10 nM rapamycin for 12 hrs. The cells were washed twice with ice-cold PBS, collected by scraping cells in 200 μl/plate of lysis buffer (25 mM HEPES-KOH, pH7.4, 250 mM NaCl, 1% Triton-X-100 supplement with phosphatase and protease inhibitors), and lysed by passing the cells 10 times through a 26G1/2 needle. The lysates were centrifuged at 14,000×g for 20 min at 4° C., and the supernatant fractions were collected. The samples were analyzed by SDS-PAGE using 7% or 10% polyacrylamide gels and transferred to nitrocellulose membranes. The membranes were blocked with 5% skim milk in PBST (1× phosphate-buffered saline with Tween® detergent) and immunoblotted with the indicated primary and HRP-conjugated secondary antibodies.
The activation of the Akt and mTOR signaling pathways in LS cells treated or not with rapamycin was examined. Cell lysates were prepared, resolved by SDS-PAGE and the presence of phosphorylated and dephosphorylated key elements of the Akt and mTOR pathways were investigated by Western blotting with specific antibodies (FIG. 5D).

LS patient cells [1] = assay: Ciliogenesis assay; format: cell-based, Human; settings: serum starvation
Description: Cells were seeded on glass cover slips and grown for 24 h in complete media. Then media was replaced by 0.1% serum DMEM (starvation media) containing vehicle or the drug to induce ciliogenesis for the indicated times. Cells were then fixed in 4% formaldehyde—PBS for 10 min and immuno-labeled with anti-acetylated tubulin antibody (see Table 2). At least 50 cells were imaged for every experiment and experiments were repeated at least thrice. The fraction of cells displaying cilia and cilia length were determined as described previously (Coon et al. (2012), supra).

LS patient cells [2] = assay: Cell spreading assay after a predetermined time-point (cell area); format: cell-based, Human; settings: for LS cell spreading phenotype: LS patient fibroblasts, 30 min after seeding on fibronectin
Description: Two approaches to monitor cell spreading were used: after a predetermined time-point and at multiple time points.
1) Spreading after a Predetermined Time-Point.
(§1) Human dermal fibroblasts (12 h after seeding) were treated with the indicated drug (or vehicle) in 0.1% serum for the indicated time. After drug treatment, the cells were lifted with 20 mM EDTA (ethylenediaminetetraacetic acid) in PBS (phosphate-buffered saline), pelleted at 300×g for 5 min and resuspended in 1% serum in the presence of drug or vehicle. Cell suspensions were then set in a rotator for 1 hour before seeding them on fibronectin-coated coverslips for 30 min, undisturbed, to allow attachment and spreading. After spreading, coverslips were gently rinsed with PBS and fixed in 4% formaldehyde for 10 min at room temperature. Cells were stained with rhodamine—phalloidin and imaged by epifluorescence microscopy. At least 50 cells were quantified per experiment by tracing and measuring cell areas by using the magic wand tool in ImageJ software (National Institutes of Health (NIH), Bethesda, MD, USA).
(§2) Cell spreading on fibronectin-coated surfaces of cells treated with RhoA modulators in comparison to untreated cells was observed. Cells were fixed and stained with fluorescently labeled-phalloidin after 30 min spreading time at 37° C. Following imaging, cell area measurements were performed.

Normal fibroblasts = assay: as above; format: cell-based, Human; settings: 30 min after seeding on fibronectin
Description: as §1, §2

normal cells = assay: Cell adhesion by time-lapse microscopy; format: cell-based, Human
Description: Human dermal fibroblasts were treated as described above, seeded on fibronectin-coated LabTek chambers, and allowed to attach and spread. Cells were imaged at intervals of 10 min after seeding for 8 h using 20× objective in a Zeiss Axiovert inverted microscope. Number of detaching cells was quantified every 10 min up to the first hour by using the cell counter tool in ImageJ (NIH). To determine spreading kinetics, individual cells were tracked in each time lapse image and were scored from 1-5 based on general cell morphology. Briefly, cells that were just attached and looked circular with no protrusions or visible extensions received a score of 1. Cells with needle-like (filopodia) projections were scored 2, cells with lamellopodia-like extensions were scored 3, cells with more extended lamellopodia-like extensions and increased cell area were given a score of 4, and a further increase in cell area, often accompanied by isotropic spread morphology, was given a score of 5. Alternatively, cells were treated as described above and allowed to attach on fibronectin-coated dishes. Immediately after seeding, the cells were imaged with a 10× objective simultaneously using up to 3 Cytosmart Imaging Systems (Lonza, Basel, Switzerland) at intervals of 30 s for 2 h. Number of cells attached was quantified every 10 min up to the first hour using the Cell Counter tool in ImageJ software (NIH).

HK2 OCRL1 K.O. cells = assay: Indirect immunofluorescence for lysosomes (Lamp2, autolysosomes); format: cell-based, Human; settings: rapamycin (10 nM) or WYE (1 μM)
Description: Following treatment with drugs, cells were washed and fixed with 4% formaldehyde-PBS for 10 min and immune-labeled for LAMP2 (lysosome-associated membrane protein 2). Random fields were imaged using a Zeiss Axiovert inverted microscope using a 40× objective with constant fluorescence exposure times.

LS patient cells [3] = assay: Viability/toxicity assessment (cell counting, morphology, MTT); format: cell-based, Human; settings: for toxicity (viability and stress-induced changes in morphology): LS cells after exposure to statins
Description: Cells were incubated with the indicated drugs for the specified times at different concentrations as described in low serum (0.1%) media to avoid substantial protein-mediated drug sequestration. In addition to cell counting post-treatment, a sample of cells seeded on fibronectin-coated coverslips was fixed and stained with fluorescein isothiocyanate (FITC)-phalloidin and DAPI (4′,6-diamidino-2-phenylindole) for cell morphology inspection. Viability was monitored by performing MTT (3-(4,5-dimethylthiazol-2-yl)-2,5-diphenyltetrazolium bromide) assays as follows: Following treatment of cells (in triplicates) with indicated drugs at different concentrations for specified times, media were aspirated and replaced with MTT solution (freshly prepared at 0.5 mg/ml in complete media) and incubated for 1.5 h. Additionally, a blank control with only MTT reagent containing no cells was also prepared. Following incubation, solution was aspirated and MTT was immediately solubilized using 1 mL DMSO (dimethylsulfoxide) (per well) by gentle pipetting. Absorbance values of solubilized MTT solution from the different wells were measured at 570 nm using a spectrophotometer.

[4] = current approved rapamycin treatments; cited from earlier work
[5] = system: HK2 and HEK293T OCRL1 K.O. cells; assay: Cell spreading assay in kidney knock-out cells; format: cell-based, Human; settings: HK2 and HEK293T OCRL1 K.O. vs wild-type
Description: Normal (GM07492) and LS primary dermal fibroblasts (GM01676 and GM03265) were obtained from the NIHGMS Human Genetic Cell Repository (Coriell Institute for Medical Research, Camden, NJ, USA). Cells were maintained in Dulbecco's Modified Eagle Medium (DMEM), streptomycin/penicillin, 2 mM L-glutamine and 15% fetal bovine serum (FBS) at 37° C. in a 5% CO2 incubator. When needed, cells were transferred to fibronectin-coated surfaces (plates or coverslips) prepared by incubation with 10 μg/mL fibronectin for 2 h at 37° C. Normal human proximal tubule epithelial (HK2) and human embryonic kidney epithelial 293T (HEK293T) cells obtained from ATCC were grown in DMEM, streptomycin/penicillin, 2 mM L-glutamine and 10% FBS at 37° C. in a 5% CO2 incubator. OCRL1^−/− (OCRL K.O) HK2 and HEK293T cells were prepared by GenScript, Inc., Piscataway, NJ, USA, and maintained under the same conditions as their normal counterparts. Characterization of these cell lines has been described before (Hsieh et al., PLoS One 10.1371/jounal.pone.0192635 (Feb. 14, 2018)).
Human dermal fibroblasts (12 h after seeding) were treated with the indicated drug (or vehicle) in 0.1% serum for the indicated time. […] At least 50 cells were quantified per experiment by tracing and measuring cell areas by using the magic wand tool in ImageJ software (National Institutes of Health (NIH), Bethesda, MD, USA).

## CC(C)n1nc(-c2ccc3oc(N)nc3c2)c2c(N)ncnc21 [INK128]
mTOR pathway in LS cells
  mTOR activation / phosphorylation: able to decrease mTOR phosphorylation
LS patient cells [1]
  ciliogenesis / PC assembly defects in LS cells: rescue ciliogenesis defects in LS cells

## O=S(=O)(c1cccc2c(I)cccc12)N1CCCNCC1 [ML-7]
LS patient cells [2]
  LS cell spreading phenotype: able to mitigate the cell spreading phenotype

## CCCC[C@@H](C=O)NC(=O)[C@H](CC(C)C)NC(=O)OCc1ccccc1 [RhoA activator, calpeptin]
Normal fibroblasts
  cell spreading of normal cells: displayed a “LS-like” cell spreading phenotype
Normal cells
  proportion of de-attaching cells: increased proportion of de-attaching cells
LS patient cells [2]
  LS cell spreading phenotype: worsened the already impaired spreading ability of LS cells

## C[C@@H]1COCCN1c1cc(=O)n2c(n1)N(Cc1cncc(Cl)c1)[C@H](C(F)(F)F)CC2 [SAR405]
mTOR pathway in LS cells
  mTOR activation / phosphorylation: did not affect mTOR activation
LS patient cells [1]
  ciliogenesis / PC assembly defects in LS cells: had no effect on ciliogenesis by LS cells

## CNC(=O)Nc1ccc(-c2nc(N3CC4CCC(C3)O4)c3cnn(C4CCC5(CC4)OCCO5)c3n2)cc1 [WYE132]
HK2 OCRL1 K.O. cells
  autolysosome deficiencies (fraction of cells displaying autolysosomes): can be rescued
mTOR pathway in LS cells
  mTOR activation / phosphorylation: able to decrease mTOR phosphorylation
LS patient cells [1]
  ciliogenesis / PC assembly defects in LS cells: rescue ciliogenesis defects in LS cells

## CC(C)c1c(C(=O)Nc2ccccc2)c(-c2ccccc2)c(-c2ccc(F)cc2)n1CC[C@@H](O)C[C@@H](O)CC(=O)O [atorvastatin]
LS patient cells [2]
  LS cell spreading phenotype: mitigated to a certain extent the LS spreading phenotype

## COCc1c(C(C)C)nc(C(C)C)c(/C=C/[C@@H](O)C[C@@H](O)CC(=O)O)c1-c1ccc(F)cc1 [cerivastatin]
LS patient cells [3]
  toxicity (viability and stress-induced changes in morphology): substantially toxic

## CSCC[C@H](NC(=O)c1ccc(NC[C@@H](N)CS)cc1-c1ccccc1)C(=O)O [farnesylation inhibitor]
LS patient cells [2]
  LS cell spreading phenotype: rescue the cell spreading phenotype of LS patient cells

## O=S(=O)(c1cccc2cnccc12)N1CCCNCC1 [fasudil]
LS patient cells [2]
  LS cell spreading phenotype: in contrast to the ROCK-inhibitor fasudil, the MLCK-inhibitor ML-7 was able to mitigate

## O=C(O)C[C@H](O)C[C@H](O)/C=C/c1c(C2CC2)nc2ccccc2c1-c1ccc(F)cc1 [pitavastatin]
LS patient cells [3]
  toxicity (viability and stress-induced changes in morphology): substantially toxic
LS patient cells [2]
  LS cell spreading phenotype: mitigated to a certain extent the LS spreading phenotype
LS patient cells [2]; LS spreading defects
  ranking of statins: rescue effect over needed dose and toxicity: rosuvastatin>pitavastatin>>>simvastatin and others

## CO[C@H]1C[C@@H]2CC[C@@H](C)[C@@](O)(O2)C(=O)C(=O)N2CCCC[C@H]2C(=O)O[C@H]([C@H](C)C[C@@H]2CC[C@@H](O)[C@H](OC)C2)CC(=O)[C@H](C)/C=C(\C)[C@@H](O)[C@@H](OC)C(=O)[C@H](C)C[C@H](C)/C=C/C=C/C=C/1C [rapamycin]
LS patient cells [3]; after 72 h-treatment
  toxicity on LS cells (decrease in viability, MTT): 10-15%
[4]
  plasma levels: 10 nM

## C3 transferase [RhoA inhibitor]
[5]
  cell spreading phenotype in OCRL1 K.O. kidney cells: confirmed
LS patient cells [2]; LS2 cells, FIG. 8A
  cell spreading / membrane remodeling phenotype in cells from another LS patient: confirmed
LS patient cells [2]
  LS cell spreading phenotype: ameliorated the cell spread phenotype
